Article PMC11378297, “Discovery and Profiling of New Multimodal Phenylglycinamide Derivatives as Potent Antiseizure and Antinociceptive Drug Candidates” (ACS Chemical Neuroscience, 2024)
Like-named read-outs stand apart in the source and are kept apart here.

What was measured:
[1] = tested on: formalin-induced pain, mice; experiment: formalin test; format: in vivo, mouse
[2] = tested on: STZ-induced tactile allodynia, mice; experiment: streptozotocin (STZ)-induced peripheral neuropathy, von Frey test; format: in vivo, mouse; details: 21 days after STZ
Source text: To test whether the compounds are active in the neuropathic pain resulting from another mechanism of neuronal injury, we tested them in streptozotocin (STZ)-induced neuropathy. STZ is the commonly used experimental model to induce diabetic neuropathy. Streptozotocin is toxic to insulin-producing beta cells in the pancreas and selectively damages these cells, leading to insulin deficiency, which subsequently results in chronic hyperglycemia. Hyperglycemia is a major factor in the development of diabetic neuropathy. Elevated blood glucose levels increase its uptake by nerve cells, which results in metabolic and oxidative stress. Moreover, hyperglycemia leads to the formation of advanced glycation end products (AGEs), which are abnormal protein structures. AGEs can accumulate in neuronal tissue and contribute to nerve dysfunction.[63] […] Additionally, STZ-induced neuropathic pain may also involve alterations in the levels of neurotransmitters such as glutamate and GABA.[64],[65]
Each animal was tested only once. […] Behavioral measurements were observed by trained observers.

[3] = molecular target: T1, TRPM8 (h) (Homo sapiens, UniProt Q7Z2W7); experiment: TRPM8 (h) (antagonist effect); format: cell-based; details: HEK293, human recombinant HEK-293 cell, read-out: % inhibition of control agonist response
T1 construct: Eurofins
Protocol: (§1) Using previously described testing methodologies, binding/functional tests were conducted on a commercial basis at Eurofins Laboratories (Poitiers, France) and Eurofins Panlabs Discovery Services Taiwan, Ltd. (New Taipei City, Taiwan); see Table S9 for more information.
(§2) Table S9. Radioligand binding and functional assays. […]
TRPM8 (h) (antagonist effect) […]
(§3) Assays were performed commercially in Eurofins Laboratories (Poitiers, France) or Eurofins Panlabs Discovery Services
(§4) Taiwan, Ltd. (New Taipei City, Taiwan).

[4] = molecular target: T2, TRPA1 (h) (Homo sapiens, UniProt O75762); experiment: TRPA1 (h) cell based antagonist calcium flux assay; details: HEK293, human recombinant HEK-293 cell, read-out: % inhibition of control agonist response
T2 construct: Eurofins
Protocol: as §1, §2
TRPA1 (h) transient potential ion channel cell based antagonist calcium flux assay […]
as §3, §4

[5] = molecular target: T3, Voltage-Gated Sodium channel hNav1.2 (Homo sapiens, UniProt Q99250); experiment: human sodium ion channel cell based automated patch clamp assay, hNav1.2
T3 construct: Eurofins Discovery (St. Charles, MO, USA)
Protocol: (§5) Therefore, as a part of the more detailed functional characterization using automated patch clamp method, we tested the influence of (R)-32 on sodium currents mediated by several Navx channels comprising 5 different human subunits, namely, Nav1.1, Nav1.2, Nav1.3, Nav1.6, and Nav1.7, which are involved in both seizure and/or pain modulation.[74],[80],[81] As summarized in Tables S4–S8, (R)-32 starting from 10 μM effectively and in concentration-dependent manner decreased sodium currents mediated by all aforementioned sodium channel subunits. Furthermore, (R)-32 appeared to bind exclusively to sodium channels that are in an inactivated state (see pulse 2 in Tables S4–S8), but not to the channels that are in an open state (pulse 1) (for additional details, see Supporting Information).
(§6) Human sodium ion channels cell based automated patch clamp assay
(§7) Human sodium ion channels cell based automated patch clamp assays: sodium channels exist in, a) a resting or closed state at -120 mV, b) a transient open state that inactivates to c) inactivated state at -10 mV. Sodium current inhibition within 1-2 ms of channel opening at 0 mV is open channel inhibition (pulse 1). In order to completely inactivate the sodium channels and facilitate inactivated state-dependent binding of the drug, the channels were kept at […] ( -10 mV) longer (pulsed for 500 ms) and then stepped back to -120 mV for 10 ms to recover from inactivation into resting or closed state (but the channels that had drug bound to them will not recover from inactivation and will not open) before stepping to -10 mV for 50 ms (pulse 2) to mea sure sodium channels that are available to open. The higher inhibition seen at pulse 2 is due to inactivated state -dependent inhibition. Pulse 1 and 2 are used to investigate drug binding to the open state and inactivated state of the Na channels, respectively. Each concentration of compound is applied for 5 minutes. The results obtained for (R)-32 are summerized in Tables S4–S8. […]
(§8) Compound Concentration Measurement % Inhibition
(§9) Data interpretation: Results showing inhibition greater than 50% are considered to represent significant effects of test compound and have been bolded for (R)-32 for better visualization. The studies were carried out in Eurofins Discovery (St. Charles, MO, USA).

[6] = molecular target: T4, Voltage-Gated Sodium channel hNav1.3 (Homo sapiens, UniProt Q9NY46); experiment: human sodium ion channel cell based automated patch clamp assay, hNav1.3
T4 construct: Eurofins Discovery (St. Charles, MO, USA)
Protocol: as §5, §6, §7, §8, §9

[7] = tested on: OXPT-induced tactile allodynia, mice; experiment: oxaliplatin (OXPT)-induced peripheral neuropathy, von Frey test
Protocol: In experimental conditions, these mechanisms trigger mechanical allodynia, which can be observed as a decrease in the pain threshold, as assessed by the von Frey test.[37]
We tested (R)-31 at the doses of 50, 75, and 100 mg/kg (Figure 7C).
The experimental groups consisted of 10 adult male Albino Swiss mice (CD-1, 18–25 g). Each animal was tested only once. Immediately after the assay, the animals were sacrificed by cervical dislocation. Behavioral measurements were observed by trained observers. […] The tested materials were administered intraperitoneally half an hour before the test, after being suspended in a 1% aqueous solution of Tween-80. 30 min before the test, the animals in the control group (negative control) received an appropriate dose of the vehicle (Tween-80, 1% aqueous solution, i.p.).

[8] = hNav1.2, Pulse 1 (open state), read-out: % Inhibition Mean
[9] = hNav1.2, Pulse 1 (open state), read-out: % Inhibition n1
[10] = hNav1.2, Pulse 1 (open state), read-out: % Inhibition n2
[11] = hNav1.2, Pulse 2 (inactivated state), read-out: % Inhibition Mean
[12] = hNav1.2, Pulse 2 (inactivated state), read-out: % Inhibition n1
[13] = hNav1.2, Pulse 2 (inactivated state), read-out: % Inhibition n2
[14] = hNav1.3, Pulse 1 (open state), read-out: % Inhibition Mean
[15] = hNav1.3, Pulse 1 (open state), read-out: % Inhibition n1
[16] = hNav1.3, Pulse 1 (open state), read-out: % Inhibition n2
[17] = hNav1.3, Pulse 2 (inactivated state), read-out: % Inhibition Mean
[18] = hNav1.3, Pulse 2 (inactivated state), read-out: % Inhibition n1
[19] = hNav1.3, Pulse 2 (inactivated state), read-out: % Inhibition n2

T4 sequence (Q9NY46 whole entry): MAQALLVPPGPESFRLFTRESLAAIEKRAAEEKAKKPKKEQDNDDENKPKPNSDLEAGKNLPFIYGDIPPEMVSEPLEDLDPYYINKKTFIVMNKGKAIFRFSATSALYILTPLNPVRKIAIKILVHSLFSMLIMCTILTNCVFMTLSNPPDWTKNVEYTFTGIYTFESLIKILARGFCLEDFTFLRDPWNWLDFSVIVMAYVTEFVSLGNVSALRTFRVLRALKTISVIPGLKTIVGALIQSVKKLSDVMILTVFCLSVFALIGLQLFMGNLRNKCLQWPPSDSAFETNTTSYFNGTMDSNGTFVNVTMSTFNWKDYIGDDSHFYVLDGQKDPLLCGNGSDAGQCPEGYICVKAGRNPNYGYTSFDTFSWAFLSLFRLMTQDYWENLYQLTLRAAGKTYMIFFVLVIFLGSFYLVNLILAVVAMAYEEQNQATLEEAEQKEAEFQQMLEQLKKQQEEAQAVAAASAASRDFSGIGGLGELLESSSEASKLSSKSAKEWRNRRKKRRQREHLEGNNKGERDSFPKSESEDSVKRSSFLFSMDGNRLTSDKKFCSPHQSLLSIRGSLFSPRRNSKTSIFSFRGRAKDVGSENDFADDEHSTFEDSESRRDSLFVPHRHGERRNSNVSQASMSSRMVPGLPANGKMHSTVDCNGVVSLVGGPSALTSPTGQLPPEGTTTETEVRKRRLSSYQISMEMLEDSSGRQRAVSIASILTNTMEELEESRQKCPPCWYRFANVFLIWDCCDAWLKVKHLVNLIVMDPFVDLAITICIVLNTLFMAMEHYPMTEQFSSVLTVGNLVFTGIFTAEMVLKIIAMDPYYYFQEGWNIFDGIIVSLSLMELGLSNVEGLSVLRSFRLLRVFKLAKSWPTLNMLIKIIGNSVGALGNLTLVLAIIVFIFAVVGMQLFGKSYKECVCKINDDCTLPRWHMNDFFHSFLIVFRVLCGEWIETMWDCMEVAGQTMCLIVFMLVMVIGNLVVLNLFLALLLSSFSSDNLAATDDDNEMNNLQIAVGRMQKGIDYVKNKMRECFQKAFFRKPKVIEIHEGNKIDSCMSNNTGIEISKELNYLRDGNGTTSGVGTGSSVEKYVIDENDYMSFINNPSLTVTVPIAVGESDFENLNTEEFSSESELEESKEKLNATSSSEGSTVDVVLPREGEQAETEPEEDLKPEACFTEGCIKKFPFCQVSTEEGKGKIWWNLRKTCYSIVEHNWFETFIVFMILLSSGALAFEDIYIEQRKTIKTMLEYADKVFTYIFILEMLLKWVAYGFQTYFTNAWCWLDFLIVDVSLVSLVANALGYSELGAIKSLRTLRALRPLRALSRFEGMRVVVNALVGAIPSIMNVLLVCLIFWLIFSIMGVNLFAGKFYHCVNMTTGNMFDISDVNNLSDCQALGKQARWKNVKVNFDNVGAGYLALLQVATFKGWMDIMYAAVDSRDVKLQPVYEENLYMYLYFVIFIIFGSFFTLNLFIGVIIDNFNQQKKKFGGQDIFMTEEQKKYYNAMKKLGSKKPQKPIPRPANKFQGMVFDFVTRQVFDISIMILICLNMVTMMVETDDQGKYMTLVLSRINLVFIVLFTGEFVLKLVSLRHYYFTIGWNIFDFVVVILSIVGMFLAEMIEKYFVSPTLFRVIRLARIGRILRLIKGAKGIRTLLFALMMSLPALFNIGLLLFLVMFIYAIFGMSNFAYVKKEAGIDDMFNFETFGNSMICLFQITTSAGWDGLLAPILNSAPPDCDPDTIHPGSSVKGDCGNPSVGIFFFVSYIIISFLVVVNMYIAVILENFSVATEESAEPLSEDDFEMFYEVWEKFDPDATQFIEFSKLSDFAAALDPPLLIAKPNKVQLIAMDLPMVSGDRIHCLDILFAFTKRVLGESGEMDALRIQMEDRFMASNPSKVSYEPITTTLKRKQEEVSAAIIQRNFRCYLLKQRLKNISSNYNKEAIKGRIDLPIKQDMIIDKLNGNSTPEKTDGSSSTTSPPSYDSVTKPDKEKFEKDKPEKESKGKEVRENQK
T3 sequence (Q99250 whole entry): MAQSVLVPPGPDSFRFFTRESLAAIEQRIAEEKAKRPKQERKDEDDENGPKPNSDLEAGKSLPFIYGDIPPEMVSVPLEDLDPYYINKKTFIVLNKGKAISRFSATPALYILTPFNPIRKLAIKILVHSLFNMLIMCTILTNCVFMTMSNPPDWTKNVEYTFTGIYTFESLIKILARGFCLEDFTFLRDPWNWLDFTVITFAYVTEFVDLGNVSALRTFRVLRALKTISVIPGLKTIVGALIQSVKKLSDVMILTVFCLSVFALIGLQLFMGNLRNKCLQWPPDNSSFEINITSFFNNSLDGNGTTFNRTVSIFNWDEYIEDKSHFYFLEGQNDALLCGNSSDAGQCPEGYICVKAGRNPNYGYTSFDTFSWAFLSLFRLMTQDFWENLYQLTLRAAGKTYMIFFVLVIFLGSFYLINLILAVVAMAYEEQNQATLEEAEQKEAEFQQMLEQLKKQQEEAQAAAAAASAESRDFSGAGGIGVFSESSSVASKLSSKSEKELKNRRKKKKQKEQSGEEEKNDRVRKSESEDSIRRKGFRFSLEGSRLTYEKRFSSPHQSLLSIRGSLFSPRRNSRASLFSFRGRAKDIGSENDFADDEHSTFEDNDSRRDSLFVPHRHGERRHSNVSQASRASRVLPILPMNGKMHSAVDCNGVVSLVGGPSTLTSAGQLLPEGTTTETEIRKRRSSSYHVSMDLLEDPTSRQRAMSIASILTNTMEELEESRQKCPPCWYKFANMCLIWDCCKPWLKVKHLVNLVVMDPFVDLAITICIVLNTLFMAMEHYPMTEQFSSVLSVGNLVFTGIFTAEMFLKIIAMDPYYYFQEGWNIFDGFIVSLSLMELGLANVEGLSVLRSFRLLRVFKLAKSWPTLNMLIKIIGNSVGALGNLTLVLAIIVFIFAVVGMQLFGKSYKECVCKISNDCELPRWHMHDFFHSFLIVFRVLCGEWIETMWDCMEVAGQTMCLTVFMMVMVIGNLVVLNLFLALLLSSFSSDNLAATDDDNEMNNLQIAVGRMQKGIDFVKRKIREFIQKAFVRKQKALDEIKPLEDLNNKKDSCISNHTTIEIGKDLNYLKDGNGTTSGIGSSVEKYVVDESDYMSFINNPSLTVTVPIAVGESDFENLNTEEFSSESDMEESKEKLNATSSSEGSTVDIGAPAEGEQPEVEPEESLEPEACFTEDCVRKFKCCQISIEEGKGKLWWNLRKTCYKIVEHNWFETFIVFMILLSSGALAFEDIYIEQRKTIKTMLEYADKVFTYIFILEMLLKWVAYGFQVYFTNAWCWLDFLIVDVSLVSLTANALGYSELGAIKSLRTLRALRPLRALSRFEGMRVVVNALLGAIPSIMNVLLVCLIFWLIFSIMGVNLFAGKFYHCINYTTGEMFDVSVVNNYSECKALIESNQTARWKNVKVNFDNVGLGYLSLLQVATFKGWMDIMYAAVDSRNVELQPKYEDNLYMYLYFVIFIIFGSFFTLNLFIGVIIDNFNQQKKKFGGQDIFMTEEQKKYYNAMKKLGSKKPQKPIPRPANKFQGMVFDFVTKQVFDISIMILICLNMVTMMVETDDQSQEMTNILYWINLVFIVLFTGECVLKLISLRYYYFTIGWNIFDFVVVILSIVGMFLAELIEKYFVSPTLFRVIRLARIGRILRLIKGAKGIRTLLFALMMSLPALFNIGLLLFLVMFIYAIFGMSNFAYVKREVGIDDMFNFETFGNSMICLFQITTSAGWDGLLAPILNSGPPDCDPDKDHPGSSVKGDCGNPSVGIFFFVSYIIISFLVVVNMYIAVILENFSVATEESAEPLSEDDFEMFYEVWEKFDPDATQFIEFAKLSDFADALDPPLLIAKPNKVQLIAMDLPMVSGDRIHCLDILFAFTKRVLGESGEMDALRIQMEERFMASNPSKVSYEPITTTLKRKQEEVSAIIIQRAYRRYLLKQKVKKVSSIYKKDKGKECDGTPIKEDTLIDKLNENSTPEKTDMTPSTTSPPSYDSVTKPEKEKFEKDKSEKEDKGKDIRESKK
T1 sequence (Q7Z2W7 whole entry): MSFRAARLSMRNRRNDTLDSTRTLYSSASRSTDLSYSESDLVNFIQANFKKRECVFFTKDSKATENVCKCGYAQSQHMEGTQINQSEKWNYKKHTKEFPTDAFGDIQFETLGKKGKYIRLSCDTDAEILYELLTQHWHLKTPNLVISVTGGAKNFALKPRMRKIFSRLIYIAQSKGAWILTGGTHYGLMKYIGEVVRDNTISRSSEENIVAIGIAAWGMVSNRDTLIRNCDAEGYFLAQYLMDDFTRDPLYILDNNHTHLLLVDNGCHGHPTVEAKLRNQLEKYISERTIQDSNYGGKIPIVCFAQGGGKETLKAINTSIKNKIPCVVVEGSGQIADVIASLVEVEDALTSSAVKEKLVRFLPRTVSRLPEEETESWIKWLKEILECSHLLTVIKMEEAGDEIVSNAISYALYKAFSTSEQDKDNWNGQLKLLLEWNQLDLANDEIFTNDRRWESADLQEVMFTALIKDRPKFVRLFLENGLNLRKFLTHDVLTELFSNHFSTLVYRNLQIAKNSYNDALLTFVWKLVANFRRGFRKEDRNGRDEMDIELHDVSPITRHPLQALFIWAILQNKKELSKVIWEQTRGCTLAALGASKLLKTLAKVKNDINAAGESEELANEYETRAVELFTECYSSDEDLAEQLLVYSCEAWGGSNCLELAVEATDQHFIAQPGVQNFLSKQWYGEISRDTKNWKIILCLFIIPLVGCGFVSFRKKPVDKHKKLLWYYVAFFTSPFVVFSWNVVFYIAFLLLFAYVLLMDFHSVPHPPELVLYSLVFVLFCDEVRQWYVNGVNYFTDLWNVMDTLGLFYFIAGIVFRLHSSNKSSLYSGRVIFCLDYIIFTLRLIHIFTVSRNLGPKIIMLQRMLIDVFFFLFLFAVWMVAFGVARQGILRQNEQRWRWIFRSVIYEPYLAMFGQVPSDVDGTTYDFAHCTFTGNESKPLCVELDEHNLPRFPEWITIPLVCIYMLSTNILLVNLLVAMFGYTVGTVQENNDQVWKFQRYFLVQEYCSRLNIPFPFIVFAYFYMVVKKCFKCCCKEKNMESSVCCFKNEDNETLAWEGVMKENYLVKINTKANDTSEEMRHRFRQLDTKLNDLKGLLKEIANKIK

Q: For `CC(=O)N[C@@H](C(=O)N1CCN(c2cccc(OC(F)(F)F)c2)CC1)c1ccccc1` [(R)-32, (R)-N-(2-Oxo-1-phenyl-2-(4-(3-(trifluoromethoxy)phenyl)piperazin-1-yl)ethyl)acetamide], which “nociceptive response, acute phase of the formalin test” value ([1]; 100 mg/kg i.p., 0–5 min after formalin) is on record?
A: decreased the nociceptive response

Q: And the “nociceptive reaction, second phase of the formalin test” value ([1]; 25, 50 and 100 mg/kg i.p.)?
A: inhibited nociceptive reaction at all tested doses

Q: And the ED50 ([1]; Mus musculus, ip, mice, i.p., phase II, read-out: ED50 in the late phase of the formalin test)?
A: 35.7 mg/kg

Q: What about the “pain threshold in STZ-induced neuropathy, % of the baseline” value ([2]; 25 mg/kg i.p.) of the same molecule?
A: 113%

Q: And the “pain threshold in STZ-induced neuropathy, % of the baseline” value ([2]; 50 mg/kg i.p.)?
A: 120%

Q: What about the “pain threshold in STZ-induced neuropathy, % of the baseline” value ([2]; 100 mg/kg i.p.) of the same molecule?
A: 134%

Q: And the inhibition at 10 µM [3]?
A: 12.6%

Q: What about the inhibition at 10 µM [4] of the same molecule?
A: 9.6%

Q: And the inhibition at 1 µM [5, 8]?
A: 0.79%

Q: And the inhibition at 1 µM [5, 9]?
A: 1.86%

Q: What about the inhibition at 1 µM [5, 10] of the same molecule?
A: -0.29%

Q: What about the inhibition at 10 µM [5, 8] of the same molecule?
A: 3.6%

Q: And the inhibition at 10 µM [5, 9]?
A: 2.03%

Q: What about the inhibition at 10 µM [5, 10] of the same molecule?
A: 5.18%

Q: And the inhibition at 100 µM [5, 8]?
A: 33.5%

Q: And the inhibition at 100 µM [5, 9]?
A: 35.7%

Q: And the inhibition at 100 µM [5, 10]?
A: 31.3%

Q: What about the inhibition at 1 µM [5, 11] of the same molecule?
A: 1.62%

Q: And the inhibition at 1 µM [5, 12]?
A: 1.9%

Q: What about the inhibition at 1 µM [5, 13] of the same molecule?
A: 1.33%

Q: And the inhibition at 10 µM [5, 11]?
A: 41.9%

Q: And the inhibition at 10 µM [5, 12]?
A: 45.5%

Q: What about the inhibition at 10 µM [5, 13] of the same molecule?
A: 38.2%

Q: And the inhibition at 100 µM [5, 11]?
A: 100%

Q: And the inhibition at 100 µM [5, 12]?
A: 100%

Q: And the inhibition at 100 µM [5, 13]?
A: 100%

Q: And the inhibition at 1 µM [6, 14]?
A: -3.38%

Q: And the inhibition at 1 µM [6, 15]?
A: -7.33%

Q: What about the inhibition at 1 µM [6, 16] of the same molecule?
A: 0.56%

Q: And the inhibition at 10 µM [6, 14]?
A: -3.18%

Q: What about the inhibition at 10 µM [6, 15] of the same molecule?
A: -8.46%

Q: And the inhibition at 10 µM [6, 16]?
A: 2.11%

Q: And the inhibition at 100 µM [6, 14]?
A: 6.75%

Q: What about the inhibition at 100 µM [6, 15] of the same molecule?
A: 5.68%

Q: What about the inhibition at 100 µM [6, 16] of the same molecule?
A: 7.82%

Q: And the inhibition at 1 µM [6, 17]?
A: -2.78%

Q: And the inhibition at 1 µM [6, 18]?
A: -5.59%

Q: And the inhibition at 1 µM [6, 19]?
A: 0.03%

Q: What about the inhibition at 10 µM [6, 17] of the same molecule?
A: 39.5%

Q: And the inhibition at 10 µM [6, 18]?
A: 42.1%

Q: And the inhibition at 10 µM [6, 19]?
A: 37%

Q: What about the inhibition at 100 µM [6, 17] of the same molecule?
A: 99.1%

Q: And the inhibition at 100 µM [6, 18]?
A: 99.6%

Q: And the inhibition at 100 µM [6, 19]?
A: 98.6%

Q: And the “pain threshold, early phase (3 h after OXPT), % of the baseline” value ([7]; 25 mg/kg i.p.)?
A: 102%

Q: And the “pain threshold, late phase (7 days after OXPT), % of the baseline” value ([7]; 25 mg/kg i.p.)?
A: 68%

Q: What about the “pain threshold, early phase (3 h after OXPT), % of the initial value/baseline” value ([7]; 50 mg/kg i.p.) of the same molecule?
A: 90%

Q: What about the “pain threshold, late phase (7 days after OXPT), % of the baseline” value ([7]; 50 mg/kg i.p.) of the same molecule?
A: 94%

Q: And the “pain threshold, early phase (3 h after OXPT), % of the initial value/baseline” value ([7]; 75 mg/kg i.p.)?
A: 109%

Q: And the “pain threshold, late phase (7 days after OXPT), % of the baseline” value ([7]; 75 mg/kg i.p.)?
A: 108%
